Experimental data taken from patent publication US11591604B2, “Gene expression in Bacteroides” (Massachusetts Institute of Technology, priority 2015, dated 2023).

These substances were tested on NanoLuc (assay: NanoLuc luciferase reporter expression from constitutive promoters and RBSs integrated with pNBU2). Settings: RBS combined with promoter PBT1311, NanoLuc reporter, three biological replicates.
Format: cell-based, B. thetaiotaomicron
Excerpt: FIGS. 1A-1G. Genetic parts to control expression in B. thetaiotaomicron. (FIG. 1A) The ranges of gene expression are shown for the different gene regulation systems provided herein. (FIG. 1B) IntN2 catalyzes stable integration of pNBU2-based expression constructs into one of two attBT2 sites in the B. thetaiotaomicron genome. The two attBT2 sites (attBT2-1 at nucleotide (nt) 6,217,227 and attBT2-2 at nt 6,138,320) are in the 3′ ends of tRNA^Ser genes (BT_t71 and BT_t70, respectively). (FIG. 1C) Constitutive promoters and ribosome binding sites for the construction of gene expression libraries. The putative −33 and −7 regions of the PBT1311 promoter, the Shine-Delgarno sequence, and the start codon are indicated by black boxes. Numbers below the black boxes represent nucleotide locations relative the PBT1311 transcription start site. The 26 nt sequences introduced in the PAM promoters are shown (see also FIGS. 6A-6B). Numbers at the edges of the boxes indicate the PBT1311 nucleotides replaced or the insertion site within the promoter. The location of residues randomized in the rpiL* RBS library are indicated with gray arrows (for library A: nt −14, −13, −12; for library B: nt −21, −18, −15; and for library C: nt −17, −16, −11; nt numbering is relative to the translation start site). (FIG. 1D) Activity was measured for a set of constitutive promoters and their cognate RBSs. Furthermore, a set of constitutive promoters (PBT1311, PAM1, PAM2, PAM3, PAM4) was combined with RBSs of varying strengths. Gene expression was measured using a luciferase reporter (NanoLuc). (FIG. 1E) Three large RBS libraries were constructed and combined with promoter PBT1311 to span 10^3-fold in gene expression. For reference, the parent rpiL* RBS is indicated with a black arrow. For D and E, error bars represent the standard deviation of three independent biological replicates made on separate days. (FIG. 1F) The strength of each RBS was compared to the predicted free energy of folding for the mRNA (ΔGfold,). (FIG. 1G) Strong (SEQ ID NO: 210) and weak (SEQ ID NO: 211) consensus sequences for the rpiL* −21 to −11 RBS region targeted by mutagenesis (residue locations are stated relative to the translation start site) are provided. Frequency logos were generated for the 11 strongest and 11 weakest RBSs by comparing the frequency of each nucleotide at each position in that group with the frequency of that nucleotide in that position in the full library. Position −20 and −19 were not randomized and are thus are not shown in the frequency logos.
All genetic parts in this study were characterized using the integration vector pNBU2 to ensure genetic stability of the constructs (FIG. 1B). The pNBU2 plasmid encodes the intN2 tyrosine integrase, which mediates sequence-specific recombination between the attN site of pNBU2 and one of two attBT sites located in the 3′ ends of the two tRNA^Ser genes, BT_t70 and BT_t71, on the B. thetaiotaomicron chromosome (FIG. 1B). Insertion of the pNBU2 plasmid inactivates the tRNA^Ser gene, and simultaneous insertion into both BT_t70 and BT_t71 is unlikely due to the essentiality of tRNA^Ser. pNBU2-based vectors have been used for single-copy complementation in B. thetaiotaomicron in in vitro studies (Koropatkin N M et al. Nat. Rev. Microbiol. 10:323-35, 2012) and in vivo mouse models (Martens E C et al. Cell Host Microbe 4:447-57, 2008).
B. thetaiotaomicron genetic parts were characterized with NanoLuc luciferase (Hall M P et al. ACS Chem. Biol. 7:1848-1857, 2012), which is a small (19 kDa) modified shrimp luciferase. Efforts to use members of the green fluorescent protein family and a FMN-based fluorescent reporter were not successful. NanoLuc oxidizes the exogenously-added substrate furimazine to produce glow-type bioluminescence (Emax=460 nm) with a signal half-life of 2 hr. […]

Substance	Average Luminescence (RLU/CFU)
B13: RBS, SEQ ID NO: 25 (DNA TCCCGCATTTTAAAATAAAATAAATGATTTAATTAATTAAACGAAT; chemistry not fully specified)	0.02746 RLU/CFU
B14: RBS, SEQ ID NO: 26 (DNA TCCCGCATTTTAAAATAAAATAAATTATCTATTTAATTAAACGAAT; chemistry not fully specified)	0.02715 RLU/CFU
B15: RBS, SEQ ID NO: 27 (DNA TCCCGCATTTTAAAATAAAATAAATGATTTACTTAATTAAACGAAT; chemistry not fully specified)	0.02695 RLU/CFU
B16: RBS, SEQ ID NO: 28 (DNA TCCCGCATTTTAAAATAAAATAAATTATATACTTAATTAAACGAAT; chemistry not fully specified)	0.02683 RLU/CFU
B17: RBS, SEQ ID NO: 30 (DNA TCCCGCATTTTAAAATAAAATAAATAATTTAGTTAATTAAACGAAT; chemistry not fully specified)	0.0259 RLU/CFU
B18: RBS, SEQ ID NO: 35 (DNA TCCCGCATTTTAAAATAAAATAAATAATGTAGTTAATTAAACGAAT; chemistry not fully specified)	0.02291 RLU/CFU
B19: RBS, SEQ ID NO: 42 (DNA TCCCGCATTTTAAAATAAAATAAATTATGTATTTAATTAAACGAAT; chemistry not fully specified)	0.02048 RLU/CFU
B20: RBS, SEQ ID NO: 52 (DNA TCCCGCATTTTAAAATAAAATAAATGATCTAATTAATTAAACGAAT; chemistry not fully specified)	0.01676 RLU/CFU
B21: RBS, SEQ ID NO: 53 (DNA TCCCGCATTTTAAAATAAAATAAATGATATATTTAATTAAACGAAT; chemistry not fully specified)	0.01613 RLU/CFU
B22: RBS, SEQ ID NO: 55 (DNA TCCCGCATTTTAAAATAAAATAAATCATGTAATTAATTAAACGAAT; chemistry not fully specified)	0.01599 RLU/CFU
B23: RBS, SEQ ID NO: 61 (DNA TCCCGCATTTTAAAATAAAATAAATAATCTATTTAATTAAACGAAT; chemistry not fully specified)	0.01464 RLU/CFU
B24: RBS, SEQ ID NO: 62 (DNA TCCCGCATTTTAAAATAAAATAAATCATTTATTTAATTAAACGAAT; chemistry not fully specified)	0.01427 RLU/CFU
B25: RBS, SEQ ID NO: 63 (DNA TCCCGCATTTTAAAATAAAATAAATGATTTAGTTAATTAAACGAAT; chemistry not fully specified)	0.01415 RLU/CFU
B26: RBS, SEQ ID NO: 68 (DNA TCCCGCATTTTAAAATAAAATAAATTATTTAGTTAATTAAACGAAT; chemistry not fully specified)	0.01271 RLU/CFU
B27: RBS, SEQ ID NO: 74 (DNA TCCCGCATTTTAAAATAAAATAAATGATATAGTTAATTAAACGAAT; chemistry not fully specified)	0.009815 RLU/CFU
B28: RBS, SEQ ID NO: 77 (DNA TCCCGCATTTTAAAATAAAATAAATTATGTAGTTAATTAAACGAAT; chemistry not fully specified)	0.009593 RLU/CFU
B29: RBS, SEQ ID NO: 80 (DNA TCCCGCATTTTAAAATAAAATAAATTATATAGTTAATTAAACGAAT; chemistry not fully specified)	0.009478 RLU/CFU
B30: RBS, SEQ ID NO: 82 (DNA TCCCGCATTTTAAAATAAAATAAATGATGTATTTAATTAAACGAAT; chemistry not fully specified)	0.009276 RLU/CFU

Substance	Average Luminescence (RLU/CFU)
B31: RBS, SEQ ID NO: 85 (DNA TCCCGCATTTTAAAATAAAATAAATGATCTAGTTAATTAAACGAAT; chemistry not fully specified)	0.008534 RLU/CFU
B32: RBS, SEQ ID NO: 92 (DNA TCCCGCATTTTAAAATAAAATAAATGATGTAGTTAATTAAACGAAT; chemistry not fully specified)	0.007096 RLU/CFU
B33: RBS, SEQ ID NO: 97 (DNA TCCCGCATTTTAAAATAAAATAAATCATGTATTTAATTAAACGAAT; chemistry not fully specified)	0.006272 RLU/CFU
B34: RBS, SEQ ID NO: 98 (DNA TCCCGCATTTTAAAATAAAATAAATCATCTATTTAATTAAACGAAT; chemistry not fully specified)	0.00584 RLU/CFU
B35: RBS, SEQ ID NO: 105 (DNA TCCCGCATTTTAAAATAAAATAAATCATGTACTTAATTAAACGAAT; chemistry not fully specified)	0.005272 RLU/CFU
B36: RBS, SEQ ID NO: 112 (DNA TCCCGCATTTTAAAATAAAATAAATCATATAATTAATTAAACGAAT; chemistry not fully specified)	0.004282 RLU/CFU
B37: RBS, SEQ ID NO: 121 (DNA TCCCGCATTTTAAAATAAAATAAATCATATATTTAATTAAACGAAT; chemistry not fully specified)	0.002567 RLU/CFU
B38: RBS, SEQ ID NO: 127 (DNA TCCCGCATTTTAAAATAAAATAAATCATTTAGTTAATTAAACGAAT; chemistry not fully specified)	0.001793 RLU/CFU
B39: RBS, SEQ ID NO: 133 (DNA TCCCGCATTTTAAAATAAAATAAATCATCTAGTTAATTAAACGAAT; chemistry not fully specified)	0.001255 RLU/CFU
B40: RBS, SEQ ID NO: 134 (DNA TCCCGCATTTTAAAATAAAATAAATCATGTAGTTAATTAAACGAAT; chemistry not fully specified)	0.001108 RLU/CFU
B41: RBS, SEQ ID NO: 139 (DNA TCCCGCATTTTAAAATAAAATAAATCATATAGTTAATTAAACGAAT; chemistry not fully specified)	0.0001307 RLU/CFU
C1: RBS, SEQ ID NO: 11 (DNA TCCCGCATTTTAAAATAAAATAAATTATTGATTTAGTTAAACGAAT; chemistry not fully specified)	0.04468 RLU/CFU
C2: RBS, SEQ ID NO: 13 (DNA TCCCGCATTTTAAAATAAAATAAATTATTACTTTAGTTAAACGAAT; chemistry not fully specified)	0.04331 RLU/CFU
C3: RBS, SEQ ID NO: 14 (DNA TCCCGCATTTTAAAATAAAATAAATTATTACTTTAATTAAACGAAT; chemistry not fully specified)	0.03677 RLU/CFU
C4: RBS, SEQ ID NO: 16 (DNA TCCCGCATTTTAAAATAAAATAAATTATTTATTTAGTTAAACGAAT; chemistry not fully specified)	0.03516 RLU/CFU
C5: RBS, SEQ ID NO: 17 (DNA TCCCGCATTTTAAAATAAAATAAATTATTCATTTAATTAAACGAAT; chemistry not fully specified)	0.03327 RLU/CFU
C6: RBS, SEQ ID NO: 19 (DNA TCCCGCATTTTAAAATAAAATAAATTATTAATTTAGTTAAACGAAT; chemistry not fully specified)	0.03263 RLU/CFU
C7: RBS, SEQ ID NO: 20 (DNA TCCCGCATTTTAAAATAAAATAAATTATTAATTTACTTAAACGAAT; chemistry not fully specified)	0.03249 RLU/CFU
